Test results from paper PMC7327383, “The affinity and selectivity of α‐adrenoceptor antagonists, antidepressants, and antipsychotics for the human α1A, α1B, and α1D‐adrenoceptors” (Pharmacology Research & Perspectives, 2020).
Read-outs that look alike come from different tables or passages of the source.

What was measured:
human α1B-adrenoceptor = target: T1, human α1B-adrenoceptor (Homo sapiens, UniProt P35368); assay: [3H]prazosin whole-cell competition binding, CHO-α1B cells; settings: for selectivity α1B vs α1D: ratio, 1 = no selectivity for a subtype over another
T1 construct: CHO cells stably expressing either the full‐length human α1A, α1B, or α1D‐adrenoceptor
T1 sequence (P35368 1-520): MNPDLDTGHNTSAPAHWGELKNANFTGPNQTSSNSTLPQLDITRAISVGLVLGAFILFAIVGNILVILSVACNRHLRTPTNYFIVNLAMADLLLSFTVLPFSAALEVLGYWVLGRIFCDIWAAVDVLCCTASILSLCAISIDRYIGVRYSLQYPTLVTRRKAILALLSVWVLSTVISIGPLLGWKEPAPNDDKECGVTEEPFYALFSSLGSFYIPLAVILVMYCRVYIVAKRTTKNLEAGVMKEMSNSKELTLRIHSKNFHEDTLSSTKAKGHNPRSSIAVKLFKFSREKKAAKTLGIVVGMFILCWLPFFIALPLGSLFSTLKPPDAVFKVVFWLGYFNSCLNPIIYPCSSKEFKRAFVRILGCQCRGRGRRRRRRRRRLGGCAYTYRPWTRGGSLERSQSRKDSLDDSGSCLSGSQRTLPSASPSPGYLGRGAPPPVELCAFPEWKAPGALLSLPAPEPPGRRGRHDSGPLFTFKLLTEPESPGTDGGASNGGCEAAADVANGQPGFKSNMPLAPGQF

[1] = target: T2, full-length human α1D-adrenoceptor (Homo sapiens, UniProt P25100); assay: [3H]prazosin whole-cell competition binding, CHO-α1D cells
T2 sequence (P25100 1-572): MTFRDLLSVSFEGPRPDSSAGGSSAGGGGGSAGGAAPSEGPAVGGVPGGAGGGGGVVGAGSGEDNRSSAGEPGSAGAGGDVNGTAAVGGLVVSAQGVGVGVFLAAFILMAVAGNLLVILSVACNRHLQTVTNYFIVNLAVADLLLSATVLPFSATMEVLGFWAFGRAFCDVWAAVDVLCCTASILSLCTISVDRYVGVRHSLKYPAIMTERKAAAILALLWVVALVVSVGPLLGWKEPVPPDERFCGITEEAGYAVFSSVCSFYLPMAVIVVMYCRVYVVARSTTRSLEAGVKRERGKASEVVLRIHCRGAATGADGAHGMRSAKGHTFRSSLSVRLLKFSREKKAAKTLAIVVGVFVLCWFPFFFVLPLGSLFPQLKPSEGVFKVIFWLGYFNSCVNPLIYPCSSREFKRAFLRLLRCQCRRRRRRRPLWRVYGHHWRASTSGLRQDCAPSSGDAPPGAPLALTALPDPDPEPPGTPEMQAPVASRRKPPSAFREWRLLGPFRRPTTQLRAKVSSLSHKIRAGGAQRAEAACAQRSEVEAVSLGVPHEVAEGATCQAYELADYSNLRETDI

human α1A-adrenoceptor = target: T3, human α1A-adrenoceptor (Homo sapiens, UniProt P35348); assay: [3H]prazosin whole-cell competition binding, CHO-α1A cells; settings: for selectivity α1A vs 1D / selectivity α1A vs α1B: ratio, 1 = no selectivity for a subtype over another
T3 construct: CHO cells stably expressing either the full‐length human α1A, α1B, or α1D‐adrenoceptor
T3 sequence (P35348 1-466): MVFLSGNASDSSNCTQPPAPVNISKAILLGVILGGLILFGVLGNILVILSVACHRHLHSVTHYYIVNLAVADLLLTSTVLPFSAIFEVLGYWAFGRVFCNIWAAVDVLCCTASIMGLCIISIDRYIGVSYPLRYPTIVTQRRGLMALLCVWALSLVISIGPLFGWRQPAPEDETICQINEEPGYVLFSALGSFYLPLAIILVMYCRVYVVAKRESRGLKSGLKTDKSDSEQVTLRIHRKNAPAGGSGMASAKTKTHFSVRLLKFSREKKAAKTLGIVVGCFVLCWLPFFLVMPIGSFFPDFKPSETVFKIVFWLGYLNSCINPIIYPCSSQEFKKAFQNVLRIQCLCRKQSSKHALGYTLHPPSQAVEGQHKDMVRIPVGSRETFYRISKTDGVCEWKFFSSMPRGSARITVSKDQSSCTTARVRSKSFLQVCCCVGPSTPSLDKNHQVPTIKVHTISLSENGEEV

[2] = Log KD α1D, single-component inhibition curve, given as log KD (negative), mean ± SE mean
[3] = single-component inhibition curve, given as log KD (negative), mean ± SE mean, read-out: Log KD α1B (converted)
[4] = selectivity ratio, 1 = no selectivity for a given receptor subtype over another
[5] = single-component inhibition curve, given as log KD (negative), mean ± SE mean
[6] = percentage of inhibition through first component, control
[7] = two-component inhibition curve, proportion of site 1
[8] = log KD from 3H-prazosin whole cell binding, CHO cells, mean ± s.e.mean

Fc1ccc([C@@H]2CCNC[C@H]2COc2ccc3c(c2)OCO3)cc1 [Paroxetine]
IC50 (human α1B-adrenoceptor; read-out: Log IC50 α1B (converted)): > 10 µM
Kd [1, 2]: 2340 nM

CN1CCN(CCCN2c3ccccc3Sc3ccc(Cl)cc32)CC1 [Prochlorperazine]
Kd (human α1B-adrenoceptor; [3]): 132 nM
Kd [1, 2]: 295 nM

CC(C)(C)NCC(O)COc1cccc2[nH]c(=O)[nH]c12 (stereo not shown) [CGP 12177]
Kd (human α1A-adrenoceptor; log KD from 3H-prazosin whole cell binding, CHO cells, mean ± s.e.mean, read-out: Log KD α1A (converted)): 7.24 µM
selectivity α1A vs 1D (human α1A-adrenoceptor): 8.7
selectivity α1A vs α1B (human α1A-adrenoceptor): >14
Log IC50 α1B (human α1B-adrenoceptor; log IC50 bound): Log IC50>-4
selectivity α1B vs α1D (human α1B-adrenoceptor): >1.6
Kd ([1]; Log KD α1D, log KD from 3H-prazosin whole cell binding, CHO cells, mean ± s.e.mean): 63100 nM

COc1cccc2c1CCC[C@H]2CN(C)CCc1ccc2ccoc2c1.CS(=O)(=O)O [A80426]
Selectivity ratio α1A vs α1D (human α1A-adrenoceptor; ratio of KD values, higher α1A affinity, 1.0 under vs = none): 3.1 fold
Selectivity ratio α1A vs α1B (human α1A-adrenoceptor; ratio of KD values, printed under α1A = higher α1A affinity, 1.0 under vs = none): 3.1 fold
selectivity α1A vs 1D (human α1A-adrenoceptor): 3.1
selectivity α1A vs α1B (human α1A-adrenoceptor): 3.1
selectivities α1A vs α1B (human α1A-adrenoceptor; [4]): 3.1
selectivities α1A vs α1D (human α1A-adrenoceptor; [4]): 3.1
Log KD α1A (human α1A-adrenoceptor; [5]): −6.57 ± 0.05
selectivity α1B vs α1D (human α1B-adrenoceptor): 1.0
Log KD α1B (human α1B-adrenoceptor; [5]): −6.08 ± 0.02
Selectivity ratio α1B vs α1D ([1]; ratio of KD values, higher α1D affinity (site 1 KD)): 1.0 fold
Log KD α1D [1, 5]: −6.07 ± 0.07

COc1ccccc1N1CCN(CCCNc2c(C)c(=O)n(C)c(=O)n2C)CC1 [5‐methyl‐urapidil]
Selectivity ratio α1A vs α1B (human α1A-adrenoceptor): 148 fold
Selectivity ratio α1A vs α1D (human α1A-adrenoceptor): 417 fold
Log KD α1A (human α1A-adrenoceptor; [5]): −8.23 ± 0.05
Log KD α1B (human α1B-adrenoceptor): −6.06 ± 0.04
Selectivity ratio α1B vs α1D (human α1B-adrenoceptor): 2.8 fold
Log KD α1D [1, 5]: −5.61 ± 0.07

CC(C)C[C@H]1C(=O)N2CCC[C@H]2[C@]2(O)O[C@](NC(=O)[C@@H]3C=C4c5cccc6[nH]c(Br)c(c56)C[C@H]4N(C)C3)(C(C)C)C(=O)N12 [Bromocriptine]
Kd (human α1B-adrenoceptor; [3]): 11 nM
Kd [1]: 49 nM

COc1ccccc1N1CCN(CCN2C(=O)CC3(CCCC3)CC2=O)CC1 [BMY7378]
Kd (human α1B-adrenoceptor; [3]): 589 nM
% site 1 α1D [1, 6]: 57.7 ± 2.6% site 1
% site 1 α1D [1, 7]: -8.60 ± 0.13 -5.93 ± 0.37 57.7 ± 2.6% site 1

COc1cc2nc(N3CCN(C(=O)COc4c(OC)cccc4C(C)C)CC3)nc(N)c2cc1OC [Rec15‐2615]
Log KD α1D [1, 5]: −7.89 ± 0.07

CN1CCN(CCCN2c3ccccc3Sc3ccc(C(F)(F)F)cc32)CC1 [Trifluoperazine]
Kd (human α1B-adrenoceptor; [3]): 132 nM
Kd [1, 2]: 437 nM

COc1cc2nc(N(C)CCCNC(=O)C3CCCO3)nc(N)c2cc1OC (stereo not shown) [Alfuzosin]
Kd (human α1B-adrenoceptor; [3]): 27.5 nM
Kd [1, 2]: 21.9 nM

CN(C)CCCN1c2ccccc2Sc2ccc(Cl)cc21 [Chlorpromazine]
Kd (human α1B-adrenoceptor; [3]): 14.5 nM
% site 1 α1D [1, 6]: 56.0 ± 5.0% site 1

OCCOCCN1CCN(C2=Nc3ccccc3Sc3ccccc32)CC1 [Quetiapine]
Kd (human α1B-adrenoceptor; [3]): 61.7 nM
Kd [1, 2]: 331 nM

CNCC[C@H](Oc1cccc2ccccc12)c1cccs1 [Duloxetine]
Kd (human α1B-adrenoceptor; read-out: Log KD α1B (apparent) (converted)): 19500 nM
Kd [1]: 2630 nM

COc1ccccc1N1CCN(CCn2c(=O)[nH]c3c([nH]c4ccccc43)c2=O)CC1 [3-MPPI]
Log KD α1A (human α1A-adrenoceptor; [8]): -9.57 ± 0.06
Log KD α1B (human α1B-adrenoceptor; [8]): -8.59 ± 0.03

COc1ccccc1OCCNCC(O)COc1cccc2[nH]c3ccccc3c12 (stereo not shown) [Carvedilol]
Kd [1, 2]: 13.5 nM

OCCN1CCN(CCCN2c3ccccc3Sc3ccc(Cl)cc32)CC1 [Perphenazine]
Kd (human α1B-adrenoceptor; [3]): 37.2 nM
Kd ([1]; Log KD α1D site 1, high-affinity component of two-component curve, control, used for selectivity): 13.8 nM
Log KD α1D site 2 ([1]; low-affinity component of two-component curve, control): −6.03 ± 0.19
% site 1 α1D [1, 6]: 53.3 ± 4.1% site 1
% site 1 α1D [1, 7]: -7.86 ± 0.10 -6.03 ± 0.19 53.3 ± 4.1% site 1

O=c1[nH]c2ccccc2n1C1CCN(CCCC(c2ccc(F)cc2)c2ccc(F)cc2)CC1 [Pimozide]
Kd (human α1B-adrenoceptor; [3]): 162 nM
Kd [1, 2]: 1120 nM

CC(C)NCC(O)COc1cccc2ccccc12 (stereo not shown) [Propranolol]
Kd (human α1B-adrenoceptor; app: top concentration inhibited most but not all specific binding, curve extrapolated, read-out: Log KD α1B (apparent) (converted)): 105000 nM
Kd [1, 2]: 12900 nM
